From patent US20040040554A1 (priority 2000, published 2004) come the findings set out here.

The test system of assay [1] is influenza A virus (A/PR/8/34 strain).
Assay [2] has the same test system. Type of assay: cell-based. The settings on record: read-out: Inhibiting Activity Cell Fusion (IC50).
The test system is the same in assay [3]. Type of assay: cell-based. To be noted: read-out: Inhibiting Activity Infection (IC50).

Where two headings read alike, the source gives them in different places.

A word on the IC50: it is the concentration that inhibits the measured activity by half. In the case of “Pentenyl(5-acetamido-3,5-dideoxy-D-glycero-α-D-galacto-2-nonulopyranosylic Acid)-O-β-D-galactopyranosyl-(1→4)-O-β-D-glucopyranoside [vii]”, in assay [1], the “Inhibiting Activity Erythrocyte Aggregation” value came to 133.3 µM. The concentration for half-maximal inhibition (IC50) in assay [2] amounted to 745 µM; in assay [3], 124 µM.
